Test results: patent publication US6949679B1, “Polyamine transport inhibitors” (Universite Laval, priority 1998, dated 2005)

Assays:
polyamine transporter [1] = assay: Inhibition of [14C]spermine uptake in ZR-75-1 cells; assay type: cell-based, human
Experimental: The rate of putrescine and spermidine transport was determined in ZR-75-1 cells incubated in serum-free RPMI 1640 medium as described (Lessard, M., Zhao, C., Singh, S. M. and Poulin, R. 1995. J. Biol. Chem. 270: 1685-1694), using [^3H]putrescine (30 Ci/mol) and [^3H]spermidine (20 Ci/mol), respectively as substrates for a 20 minute-assay period. […] Uptake activity was expressed per amount of DNA as fluorometrically determined using 3,4-diaminobenzoic acid (Simard, J., Dauvois, S., Haagensen, D. E., Lėvesque, C., Mėrand, Y. and Labrie, F. 1990. Endocrinology, 126: 3223-3231). For the determination of spermidine uptake activity in CHO-K1 cells, 80% confluent cell monolayers were rinsed twice with PBS and incubated for 20 minutes at 37° C. in 400 μl of buffer A (20 mM Tris-HCl, pH 7.4; 0.42 mM CaCl2; 0.41 mM MgSO4; 103 mM NaCl; 5.7 mM KCl; 1.1 mM D-glucose) containing 5 μM [^3H]spermidine (20 Ci/mol). Cell cultures were then washed twice with 1 ml PBS containing 5.7 mM sym-norspermidine. Cells were then lysed with 200-μl aliquot of 1 N NaOH and incubated for 30 minutes at 60° C. After neutralization with 200 μl of 1 N HCl, radioactivity was determined from a 250-μl of the cell lysate by scintillation counting. Uptake activity was expressed per amount of total cellular protein as determined by the method of Bradford (Bradford, M. M. 1976. Anal. Biochem. 72: 248-254). Non-specific binding of radioactive substrate was similarly determined in parallel for both cell lines after a 15 second-incubation with 400 μl of ice-cold uptake solution.
(§1) Kinetic analysis of polyamine transport was performed by determining uptake activity in the presence of a 3 μM [^3H]putrescine or 1 μM [^3H]spermidine plus increasing concentrations of nonradioactive substrate. K[…] Ki and Vmax values were then estimated by Lineweaver-Burke analysis. For competitive inhibitors, Ki values were also estimated by measuring uptake activity in the presence of logarithmically increasing concentrations of antagonist, and using the Cheng-Prusoff equation (Cheng, Y.-C. and Prusoff, W. H. 1973. Biochem. Pharmacol. 22: 3099-3108) by iterative curve fitting for a sigmoidal curve. For mixed competitive/noncompetitive inhibition, two methods were used to calculate kinetic constants. First, the equation [drawing 2] where v, s, and i are the transport velocity, substrate concentration and inhibitor concentration respectively, was used to calculate the inhibition constants for inhibitor/carrier complex formation (Ki) and carrier/inhibitor/substrate complex formation (Ki′) (Dixon, M. and Webb, E. C. 1976. Enzymes, 3rd Ed., Academic Press, San Diego, Calif.). Alternatively, the value of Ki for a mixed competitor/non-competitor was estimated from the intersect of equations v^−1 vs i at two different substrate concentrations (Dixon, M. and Webb, E. C. 1976. Enzymes, 3rd Ed., Academic Press, San Diego, Calif.). Intracellular Accumulation
(§2) In order to evaluate the effectiveness of dimeric triamines as polyamine transport inhibitors, we synthesized N,N′-bis(3-aminopropyl),N,N′-bis(4-aminobutyl)cystamine or BABAC (structure 1, FIG. 25; FIG. 31), and its thiol form N-(3-aminopropyl),N-(4-aminobutyl)cysteamine or AAC (FIG. 31) according to Scheme 4 described above (FIG. 30), using spermidine as a precursor polyamine. The ability of BABAC and AAC to inhibit the intracellular uptake of radio-labeled putrescine and spermidine in the ZR-75-1 human breast cancer cell line was then determined according to standard published procedures (Lessard, et al. and Poulin, et al.) Briefly, ZR-75-1 cells were grown for four days in twenty-four well plates in RPMI 1640 medium supplemented with 10% fetal bovine serum.

polyamine transporter [2] = assay: as above; assay type: cell-based, human; settings: 3μM substrate (Example 11), read-out: Ki, [14C]spermine transport
polyamine transporter [3] = assay: Inhibition of [3H]spermidine uptake in ZR-75-1 cells; assay type: cell-based, human
Experimental: (§3) The rate of putrescine and spermidine transport was determined in ZR-75-1 cells incubated in serum-free RPMI 1640 medium as described (Lessard, M., Zhao, C., Singh, S. M. and Poulin, R. 1995. J. Biol. Chem. 270: 1685-1694), using [^3H]putrescine (30 Ci/mol) and [^3H]spermidine (20 Ci/mol), respectively as substrates for a 20 minute-assay period. Spermine uptake was similarly determined, using 1 μM [^14C]spermine (32 Ci/mol) as substrate. Uptake activity was expressed per amount of DNA as fluorometrically determined using 3,4-diaminobenzoic acid (Simard, J., Dauvois, S., Haagensen, D. E., Lėvesque, C., Mėrand, Y. and Labrie, F. 1990. Endocrinology, 126: 3223-3231). For the determination of spermidine uptake activity in CHO-K1 cells, 80% confluent cell monolayers were rinsed twice with PBS and incubated for 20 minutes at 37° C. in 400 μl of buffer A (20 mM Tris-HCl, pH 7.4; 0.42 mM CaCl2; 0.41 mM MgSO4; 103 mM NaCl; 5.7 mM KCl; 1.1 mM D-glucose) containing 5 μM [^3H]spermidine (20 Ci/mol). Cell cultures were then washed twice with 1 ml PBS containing 5.7 mM sym-norspermidine. Cells were then lysed with 200-μl aliquot of 1 N NaOH and incubated for 30 minutes at 60° C. After neutralization with 200 μl of 1 N HCl, radioactivity was determined from a 250-μl of the cell lysate by scintillation counting. Uptake activity was expressed per amount of total cellular protein as determined by the method of Bradford (Bradford, M. M. 1976. Anal. Biochem. 72: 248-254). Non-specific binding of radioactive substrate was similarly determined in parallel for both cell lines after a 15 second-incubation with 400 μl of ice-cold uptake solution.
as §1, with “Alternatively, the value of Ki for a mixed competitor/non-competitor was estimated from the intersect of equations v^−1 vs i at two different substrate concentrations (Dixon, M. and Webb, E. C. 1976. Enzymes, 3rd Ed., Academic Press, San Diego, Calif.). Intracellular Accumulation” left out
as §2

polyamine transporter [4] = assay: Inhibition of [3H]putrescine uptake in ZR-75-1 cells; assay type: cell-based, human; settings: for Mode of inhibition of [3H]putrescine uptake: Lineweaver-Burke, DESC up to 100 μM, MESC up to 200 μM; for Ki: ZR-75-1 cells
Experimental: as §3, §1, §2

[5] = Stability in buffered aqueous solution; assay type: physicochemical; settings: buffered at pH=7.0
[6] = this work, read-out: Km or Ki, spermine transport
[7] = this work, DEASC: Ki of mixed competitive/non-competitive model, read-out: Ki, putrescine transport

SMILES	Ki (polyamine transporter [1]; FIG. 32, read-out: Apparent Ki, spermine uptake) [µM]	Ki (polyamine transporter [1]; [6]) [µM]	Ki (polyamine transporter [2]) [µM]	Ki (polyamine transporter [3]; FIG. 32, 20 μM and 3 μM substrate, respectively, read-out: Apparent Ki, spermidine uptake) [µM]	Ki (polyamine transporter [3]; this work, read-out: Ki, spermidine transport) [µM]	Mode of inhibition of [3H]putrescine uptake (polyamine transporter [4])	Ki (polyamine transporter [4]; FIG. 32, 20 μM and 3 μM substrate, respectively, read-out: Apparent Ki, putrescine uptake) [µM]	Ki (polyamine transporter [4]; [7]) [µM]	Stability in aqueous solutions [5]	Ki for [14C]spermine transport, fold higher than that of DESC (polyamine transporter [1]; FIG. 2) [fold]
NCCCNCCCC(NCCCN)C(=O)NCCSSCCNC(=O)C(CCCNCCCN)NCCCN (stereo not shown) [DESC, 2,2′-dithiobis(N-ethyl-spermine-5-carboxamide)]	7.5	5 ± 0.7	17	5.6	2.7 ± 1.1	pure competitive inhibitors	0.54	1.6 ± 0.5	stable for months	
NCCCNCCCC(NCCCN)C(=O)NCCS (stereo not shown) [MESC, N-(2-mercaptoethyl)spermine-5-carboxamide]		80 ± 31				pure competitive inhibitors		22 ± 3		~16
